The text below walks through data of patent US11136313B2, “Compounds, compositions, and methods for modulating CFTR” (Proteostasis Therapeutics, Inc., priority 2015, dated 2021).

Each structure is given as a SMILES string.

This assay deals with T1, ΔF508-CFTR (Homo sapiens, UniProt P13569, DEL508-508).
T1 construct: Primary lung epithelial cells homozygous for the Cystic Fibrosis-causing ΔF508 mutation were differentiated for a minimum of 4 weeks; endogenous in cells; host or cells: primary lung epithelial cells (hBE) homozygous for ΔF508, differentiated at an air-liquid interface
T1 sequence (P13569 with tags, fused parts or gaps DEL508-508): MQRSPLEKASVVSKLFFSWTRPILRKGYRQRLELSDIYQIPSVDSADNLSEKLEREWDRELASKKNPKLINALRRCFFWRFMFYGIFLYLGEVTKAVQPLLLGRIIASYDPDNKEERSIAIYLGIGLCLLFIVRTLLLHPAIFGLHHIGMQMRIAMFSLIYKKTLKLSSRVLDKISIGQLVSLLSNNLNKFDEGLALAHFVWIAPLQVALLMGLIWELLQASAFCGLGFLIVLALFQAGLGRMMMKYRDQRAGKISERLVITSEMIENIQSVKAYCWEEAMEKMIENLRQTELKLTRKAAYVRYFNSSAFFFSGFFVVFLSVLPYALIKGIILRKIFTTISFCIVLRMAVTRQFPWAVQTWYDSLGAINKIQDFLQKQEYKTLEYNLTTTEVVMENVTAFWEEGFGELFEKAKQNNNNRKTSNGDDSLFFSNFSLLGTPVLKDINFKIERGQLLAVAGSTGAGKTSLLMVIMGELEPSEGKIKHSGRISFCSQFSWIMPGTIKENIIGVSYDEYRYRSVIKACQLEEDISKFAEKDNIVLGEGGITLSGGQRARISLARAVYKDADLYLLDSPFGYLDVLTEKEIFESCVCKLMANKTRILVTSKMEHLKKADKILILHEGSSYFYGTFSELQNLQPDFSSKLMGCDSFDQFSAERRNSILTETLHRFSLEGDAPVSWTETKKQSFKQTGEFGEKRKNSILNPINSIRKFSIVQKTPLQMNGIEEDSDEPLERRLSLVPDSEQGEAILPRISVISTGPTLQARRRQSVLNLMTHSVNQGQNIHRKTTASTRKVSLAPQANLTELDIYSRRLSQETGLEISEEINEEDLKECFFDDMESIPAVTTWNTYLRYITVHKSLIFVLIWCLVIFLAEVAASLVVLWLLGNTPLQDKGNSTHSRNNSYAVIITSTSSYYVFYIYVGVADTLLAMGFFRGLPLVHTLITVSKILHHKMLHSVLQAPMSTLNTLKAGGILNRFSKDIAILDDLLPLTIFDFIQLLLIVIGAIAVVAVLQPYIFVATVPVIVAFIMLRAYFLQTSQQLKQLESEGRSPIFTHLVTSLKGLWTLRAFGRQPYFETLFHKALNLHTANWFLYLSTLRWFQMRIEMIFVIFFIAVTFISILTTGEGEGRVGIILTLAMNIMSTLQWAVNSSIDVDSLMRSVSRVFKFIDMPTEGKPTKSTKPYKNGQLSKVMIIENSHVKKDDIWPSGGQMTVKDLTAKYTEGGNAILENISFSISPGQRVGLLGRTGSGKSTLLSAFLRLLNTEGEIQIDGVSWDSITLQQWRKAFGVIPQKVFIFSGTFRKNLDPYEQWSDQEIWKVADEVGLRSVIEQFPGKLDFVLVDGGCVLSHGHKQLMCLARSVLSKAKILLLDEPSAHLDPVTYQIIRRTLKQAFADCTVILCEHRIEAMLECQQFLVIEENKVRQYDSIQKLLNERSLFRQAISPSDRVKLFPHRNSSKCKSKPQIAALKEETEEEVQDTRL
Nature of the assay: hBE equivalent current (Ieq) assay: AUC of equivalent chloride current after forskolin/VX-770 in primary lung epithelial cells homozygous for ΔF508. It is filed as cell-based. Particulars: relative to CFTR amplifier (Compound A)+VX-809 (3 uM), compound at 10 uM and Compound A at 3 uM, 24 h treatment. Here is the method:
ii. hBE Equivalent Current (Ieq) Assay
Primary lung epithelial cells homozygous for the Cystic Fibrosis-causing ΔF508 mutation were differentiated for a minimum of 4 weeks in an air-liquid interface on Costar 24 well HTS filter plates prior to the equivalent current (Ieq) measurements. Cells were apically mucus-washed for 30 minutes 24 h prior to treatment with compounds. The basolateral media was removed and replaced with media containing the compound of interest diluted to its final concentration from DMSO stocks. Treated cells were incubated at 37° C. and 5% CO2 for 24 hours. At the end of the treatment period, the media was changed to the Ieq experimental solution for 2 hours before the experiment and plates are maintained in a CO2-free incubator during this period. The plates containing the cells were then placed in pre-warmed heating blocks at 36° C.±0.5 for 15 minutes before measurements are taken. The transepithelial voltage (VT) and conductance (GT) were measured using a custom 24 channel current clamp (TECC-24) with 24 well electrode manifold. The Ieq assay measurements were made following additions with standardized time periods: • 1. The baseline VT and GT values were measured for approximately 20 minutes. • 2. Benzamil was added to block ENaC for 15 minutes. • 3. Forskolin plus VX-770 were added to maximally activate ΔF508-CFTR for 27 minutes. • 4. Bumetanide was added to inhibit the NaK2Cl cotransporter and shut-off secretion of chloride.
The activity data captured was the area under the curve (AUC) for the traces of the equivalent chloride current. The AUC was collected from the time of the forskolin/VX-770 addition until the inhibition by bumetanide addition. Correction in response to compound treatment was scored as the increase in the AUC for compound-treated samples over that of vehicle-treated samples.
(+ indicates activity<50% of an CFTR amplifier (Compound A)+VX-809 (3 uM) with compound at 10 uM and Compound A at 3 uM; ++ indicates activity>50% of CFTR amplifier+VX-809 (3 uM) with compound at 10 uM and Compound A at 3 uM.
Turning to `Cc1c(-c2cc(C(=O)[O-])c3c(O[C@H](C)c4ccc(S(C)(=O)=O)cc4)ccc(C)c3n2)sc2ccccc12.[Na+]` [Compound 265], the Activity entry is “++ (activity>50% of CFTR amplifier+VX-809 (3 uM) with compound at 10 uM and Compound A at 3 uM)”. For `Cc1cccc(C)c1COc1ccc(C)c2nc(-c3sc4ccccc4c3C)cc(C(=O)[O-])c12.[Na+]` [Compound 305], the Activity result is “++ (activity>50% of CFTR amplifier+VX-809 (3 uM) with compound at 10 uM and Compound A at 3 uM)”.

Turning to `Cc1c(-c2cc(C(=O)[O-])c3c(O[C@H](C)c4ccc(S(C)(=O)=O)cc4)ccc(C)c3n2)oc2ccccc12.[Na+]` [Compound 229, Sodium 5-[(1R)-1-(4-methanesulfonylphenyl)ethoxy]-8-methyl-2-(3-methyl-1-benzofuran-2-yl)quinoline-4-carboxylate], the Activity result is “++ (activity>50% of CFTR amplifier+VX-809 (3 uM) with compound at 10 uM and Compound A at 3 uM)”.

Consider `Cc1c(-c2cc(C(=O)O)c3c(C)ccc(C)c3n2)oc2c(OCc3ccccc3)cccc12` [Compound 132, 2-[7-(Benzyloxy)-3-methyl-1-benzofuran-2-yl]-5,8-dimethylquinoline-4-carboxylic acid], for which the Activity result was “++ (activity>50% of CFTR amplifier+VX-809 (3 uM) with compound at 10 uM and Compound A at 3 uM)”. As for `CCc1ccc(OC(CC)c2ccccc2)c2c(C(=O)O)cc(-c3csc4ccccc34)nc12` (stereo in doubt) [Compound 185, 2-(1-Benzothiophen-3-yl)-8-ethyl-5-[(1S)-1-phenylpropoxy]quinoline-4-carboxylic acid], the entry is “++ (activity>50% of CFTR amplifier+VX-809 (3 uM) with compound at 10 uM and Compound A at 3 uM)”; as for `CCc1ccc(OCc2cccc(-c3cccnc3)c2)c2c(C(=O)O)cc(-c3csc4ccccc34)nc12` [Compound 194], “+ (activity<50% of an CFTR amplifier (Compound A)+VX-809 (3 uM) with compound at 10 uM and Compound A at 3 uM)”. With `Cc1c(-c2cc(C(=O)O)c3c(O[C@H](C)c4ccccc4)ccc(C)c3n2)sc2ccccc12` [Compound 137, 8-Methyl-2-(3-methyl-1-benzothiophen-2-yl)-5-[(1R)-1-phenylethoxy]quinoline-4-carboxylic Acid] the entry was “++ (activity>50% of CFTR amplifier+VX-809 (3 uM) with compound at 10 uM and Compound A at 3 uM)”; with `Cc1ccc(OC(C)c2ccccc2)c2c(C(=O)[O-])cc(-c3nc4ccccc4n3C)nc12.[Na+]` (stereo not drawn) [Compound 407], “+ (activity<50% of an CFTR amplifier (Compound A)+VX-809 (3 uM) with compound at 10 uM and Compound A at 3 uM)”; with `Cc1ccc(OCc2ccccc2)c2c(C(=O)O)cc(-c3snc4ccccc34)nc12` [Compound 86, 2-(2,1-Benzothiazol-3-yl)-5-(benzyloxy)-8-methylquinoline-4-carboxylic Acid], “++ (activity>50% of CFTR amplifier+VX-809 (3 uM) with compound at 10 uM and Compound A at 3 uM)”. As for `COc1cccc(COc2ccc(C)c3nc(-c4sc5ccccc5c4C)cc(C(=O)[O-])c23)c1.[Na+]` [Compound 293, Sodium 5-[(3-Methoxyphenyl)methoxy]-8-methyl-2-(3-methyl-1-benzothiophen-2-yl)quinoline-4-carboxylate], the entry is “++ (activity>50% of CFTR amplifier+VX-809 (3 uM) with compound at 10 uM and Compound A at 3 uM)”; as for `Cc1c(-c2cc(C(=O)[O-])c3c(O[C@@H](C)C4CCN(S(C)(=O)=O)CC4)ccc(C)c3n2)oc2ccccc12.[Na+]` [Compound 248, Sodium 5-[(1S)-1-(1-Methanesulfonylpiperidin-4-yl)ethoxy]-8-methyl-2-(3-methyl-1-benzofuran-2-yl)quinoline-4-carboxylate], “++ (activity>50% of CFTR amplifier+VX-809 (3 uM) with compound at 10 uM and Compound A at 3 uM)”; as for `Cc1cc(Cl)cc2c(C(=O)O)cc(-c3cc4ccccc4o3)nc12` [Compound 16, 2-(1-Benzofuran-2-yl)-6-chloro-8-methylquinoline-4-carboxylic acid], “+ (activity<50% of an CFTR amplifier (Compound A)+VX-809 (3 uM) with compound at 10 uM and Compound A at 3 uM)”.

Consider `Cc1ccc(O[C@H](C)c2ccccc2)c2c(C(=O)O)cc(-c3csc4ccccc34)nc12` [Compound 162], for which the Activity result was “++ (activity>50% of CFTR amplifier+VX-809 (3 uM) with compound at 10 uM and Compound A at 3 uM)”. As for `Cc1c(-c2cc(C(=O)[O-])c3c(OCc4ccccc4C#N)ccc(C)c3n2)sc2ccccc12.[Na+]` [Compound 280], the entry is “++ (activity>50% of CFTR amplifier+VX-809 (3 uM) with compound at 10 uM and Compound A at 3 uM)”; as for `Cc1c(-c2cc(C(=O)O)c3c(O[C@H]4CC[C@@H](c5ncco5)CC4)ccc(C)c3n2)oc2ccccc12` [Compound 196], “++ (activity>50% of CFTR amplifier+VX-809 (3 uM) with compound at 10 uM and Compound A at 3 uM)”. For `Cc1c(-c2cc(C(=O)O)c3c(OC4CCCCC4)ccc(C)c3n2)oc2ccccc12` [Compound 79, 5-(Cyclohexyloxy)-8-methyl-2-(3-methyl-1-benzofuran-2-yl)quinoline-4-carboxylic acid], the Activity entry was “++ (activity>50% of CFTR amplifier+VX-809 (3 uM) with compound at 10 uM and Compound A at 3 uM)”. As for `Cc1c(-c2cc(C(=O)[O-])c3c(O[C@@H](C)c4ccn5nccc5c4)ccc(C)c3n2)oc2ccccc12.[Na+]` [Compound 258, Sodium 8-Methyl-2-((1S)-3-methyl-1-benzofuran-2-yl)-5-(1-[pyrazolo[1,5-a]pyridin-5-yl]ethoxy)quinoline-4-carboxylate], the entry is “++ (activity>50% of CFTR amplifier+VX-809 (3 uM) with compound at 10 uM and Compound A at 3 uM)”; as for `Cc1c(-c2cc(C(=O)[O-])c3c(OCc4cccc5c4OCO5)ccc(C)c3n2)sc2ccccc12.[Na+]` [Compound 296], “++ (activity>50% of CFTR amplifier+VX-809 (3 uM) with compound at 10 uM and Compound A at 3 uM)”. As for `Cc1ccc(C)c2c(C(=O)O)cc(-c3cc4ccccc4o3)nc12` [Compound 10, 2-(1-Benzofuran-2-yl)-5,8-dimethylquinoline-4-carboxylic acid], the entry is “+ (activity<50% of an CFTR amplifier (Compound A)+VX-809 (3 uM) with compound at 10 uM and Compound A at 3 uM)”; as for `Cc1c(-c2cc(C(=O)[O-])c3c(O[C@@H]4C[C@H](C)C[C@H](C)C4)ccc(C)c3n2)sc2ccccc12.[Na+]` [Compound 315], “++ (activity>50% of CFTR amplifier+VX-809 (3 uM) with compound at 10 uM and Compound A at 3 uM)”; as for `Cc1ccc(OCc2ccccc2)c2c(C(=O)O)cc(-c3cc4ccccc4s3)nc12` [Compound 34, 2-(1-Benzothiophen-2-yl)-5-(benzyloxy)-8-methylquinoline-4-carboxylic acid], “++ (activity>50% of CFTR amplifier+VX-809 (3 uM) with compound at 10 uM and Compound A at 3 uM)”. As for `Cc1cccc(COc2ccc(C)c3nc(-c4sc5ccccc5c4C)cc(C(=O)[O-])c23)c1.[Na+]` [Compound 304], the entry is “++ (activity>50% of CFTR amplifier+VX-809 (3 uM) with compound at 10 uM and Compound A at 3 uM)”; as for `Cc1c(-c2cc(C(=O)[O-])c3c(O[C@H](C)c4ccn5nccc5c4)ccc(C)c3n2)oc2ccccc12.[Na+]` [Compound 257, Sodium 8-Methyl-2-((1R)-3-methyl-1-benzofuran-2-yl)-5-(1-[pyrazolo[1,5-a]pyridin-5-yl]ethoxy)quinoline-4-carboxylate], “++ (activity>50% of CFTR amplifier+VX-809 (3 uM) with compound at 10 uM and Compound A at 3 uM)”; as for `Cc1c(-c2cc(C(=O)O)c3c(OCCc4ccccc4)ccc(C)c3n2)oc2ccccc12` [Compound 73, 8-methyl-2-(3-methyl-1-benzofuran-2-yl)-5-(2-phenylethoxy)quinoline-4-carboxylic acid], “++ (activity>50% of CFTR amplifier+VX-809 (3 uM) with compound at 10 uM and Compound A at 3 uM)”. Consider `COc1cc(C)c2nc(-c3cc4ccccc4o3)cc(C(=O)O)c2c1` [Compound 11, 2-(1-Benzofuran-2-yl)-6-methoxy-8-methylquinoline-4-carboxylic acid], for which the Activity entry was “+ (activity<50% of an CFTR amplifier (Compound A)+VX-809 (3 uM) with compound at 10 uM and Compound A at 3 uM)”. With `Cc1cc(C)c2nc(-c3c(C)oc4ccccc34)cc(C(=O)O)c2c1` [Compound 5, 6,8-Dimethyl-2-(2-methyl-1-benzofuran-3-yl)quinoline-4-carboxylic acid] the entry was “+ (activity<50% of an CFTR amplifier (Compound A)+VX-809 (3 uM) with compound at 10 uM and Compound A at 3 uM)”; with `CCc1ccc(O[C@@H]2CCC[C@@H](C)C2)c2c(C(=O)O)cc(-c3csc4ccccc34)nc12` [Compound 184, 2-(Benzo[b]thiophen-3-yl)-8-ethyl-5-(((1R,3R)-3-methylcyclohexyl)oxy)quinoline-4-carboxylic Acid], “++ (activity>50% of CFTR amplifier+VX-809 (3 uM) with compound at 10 uM and Compound A at 3 uM)”.
